Experimental data from US12622892B2, “Methods for treating endometriosis” (THE TEXAS A&M UNIVERSITY SYSTEM, priority 2020, dated 2026).

Key:
GAL4-NR4A1 = molecular target: T1, GAL4-NR4A1 (Homo sapiens, UniProt P22736); assay: Luciferase assay, GAL4-NR4A1 chimera/UAS-luc in ESECT-7 cells; assay type: cell-based; conditions: ESECT-7 cells transfected with GAL4-NR4A1 chimera/UAS-luc; 18 hr treatment; FIG. 2A
T1 construct: GAL4 (fusion partner); expressed in transfected cells; host or cells: ESECT-7 patient-derived endometriotic cells
T1 sequence (P22736 with tags, fused parts or gaps): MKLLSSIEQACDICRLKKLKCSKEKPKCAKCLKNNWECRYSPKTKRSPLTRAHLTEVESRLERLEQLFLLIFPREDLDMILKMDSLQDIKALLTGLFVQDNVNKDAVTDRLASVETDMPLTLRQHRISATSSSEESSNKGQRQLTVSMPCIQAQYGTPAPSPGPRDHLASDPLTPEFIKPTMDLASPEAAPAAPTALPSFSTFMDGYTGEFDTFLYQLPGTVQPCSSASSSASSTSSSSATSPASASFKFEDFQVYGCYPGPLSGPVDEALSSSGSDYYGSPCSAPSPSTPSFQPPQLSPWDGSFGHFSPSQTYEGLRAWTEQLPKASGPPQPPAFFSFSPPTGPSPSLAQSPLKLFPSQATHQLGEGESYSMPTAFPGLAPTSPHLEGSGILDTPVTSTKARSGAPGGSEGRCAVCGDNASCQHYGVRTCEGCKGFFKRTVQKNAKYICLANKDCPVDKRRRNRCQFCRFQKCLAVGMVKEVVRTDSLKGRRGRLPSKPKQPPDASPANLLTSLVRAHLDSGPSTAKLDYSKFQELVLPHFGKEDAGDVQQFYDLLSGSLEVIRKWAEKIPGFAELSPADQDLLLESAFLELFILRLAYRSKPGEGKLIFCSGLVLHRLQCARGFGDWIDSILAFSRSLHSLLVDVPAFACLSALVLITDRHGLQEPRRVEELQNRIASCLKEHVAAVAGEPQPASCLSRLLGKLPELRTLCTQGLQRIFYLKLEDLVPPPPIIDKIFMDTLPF
Method: Luciferase assay: ESECT-7 and ESECT-40 cells were plated on 12-well plates in DMEM/F12 supplemented with 2.5% charcoal-stripped FBS. After overnight attachment and growth, various amounts of DNA [i.e., UASx5-Luc (500 ng), GAL4-NR4A1 (50 ng), NBREx3-Luc (800 ng), NurREx3-Luc (800 ng) and Flag-NR4A1 (80 ng)] were co-transfected into each well using Lipofectamine 2000 reagent (Invitrogen, Carlsbad, CA) according to the manufacturer's protocol. After 6 hr of transfection, cells were treated with plating medium (as above) containing either solvent (DMSO) or indicated concentrations of the compound for 18 hr. Cells were then lysed and cell extracts were used for chemiluminescence quantification of luciferase activity. Luciferase activity values were normalized against corresponding protein concentration values determined by Bradford assay. Both GAL4- and Flag-NR4A1 constructs contain full-length NR4A1 coding sequence and all the plasmids used in this study were previously described.

NEM cells = assay: Western blotting of growth promoting and proapoptotic gene products, NEM cells; assay type: cell-based, human
ESECT-7 cells [1] = assay: α-SMA immunofluorescence, ESECT-7; assay type: cell-based, human; conditions: vs control, FIG. 5A
Method: Immunofluorescence: ESECT-7 and ESECT-40 cells were seeded in Nunc chambered cover-glass followed by various drug treatments. The cells were fixed with 4% paraformaldehyde in PBS for 20 minutes at 37° C. Cells were then blocked and incubated overnight with primary α-SMA antibody in the buffer (5% bovine serum albumin in PBS) at 4° C., followed by incubation with Alexa Fluor conjugated secondary antibody at a dilution of 1:250 for 2 hours at room temperature. Finally, cells were observed using a Zeiss confocal fluorescence microscope.

ESECT-7 cells [2] = assay: Quantitative real-time PCR of fibrosis markers, ESECT-7; assay type: cell-based, human; conditions: 24 hours, 20-25 μM DIM-C-pPhOH, 5-10 μM DIM-C-pPhOH-3-Cl-5-OCH3, vs DMSO control, FIG. 5C
Method: Quantitative real-time PCR: Total RNA was isolated from cultured cells according to the manufacturer's instructions (Zymo Research, Irvine, CA). The concentration and purity of the RNA samples were determined using a nanodrop spectrophotometer. Total RNA was reverse transcribed using iTaq Universal SYBR Green One-Step Kit (Thermo Fisher Scientific, Grand Island, NY) using the manufacturer's protocol with the CFX384 real-time PCR System (Bio-Rad). The comparative cycle threshold method was used for relative quantitation of samples. Values for each gene were normalized to expression levels of TATA-binding protein. The sequences of the primers used for real-time PCR included the following: α-SMA, 5′-GGCCGAGATCTCACTGACTAC-3′ (sense, SEQ ID NO. 13) and 5′-TTC ATG GAT GCC AGC AGA-3′ (antisense, SEQ ID NO. 14); COL1A1, 5′-CAG CCG CTT CAC CTA CAG C-3′ (sense, SEQ ID NO. 15) and 5′-TTTTGTATTCAATCAGTGTCTTGCC-3′ (antisense, SEQ ID NO. 16); CTGF, 5′-TTGGCCCAGACCCAACTATG-3′(sense, SEQ ID NO. 17) and 5′-CAGGAGGCGTTGTCATTGGT-3′ (antisense, SEQ ID NO. 18); FN, 5′-GGG AGC CTC GAA GAG C-3′ (sense 19) and 5′-AACAAGTACAAACCAACGCA-3′ (antisense, SEQ ID NO. 20) and TATA-binding protein, 5′-GATCAGAACAACAGCCTGCC-3′ (sense, SEQ ID NO. 21) and 5′-TTCTGAATAGGCTGTGGGGT-3′ […].

human ectopic lesions = assay: Endometriosis mouse model by hetero-transplantation with human endometrial cells in SCID mice; assay type: in vivo; conditions: SCID mice with HECs carrying luciferase; 25 mg/kg once a day, 30 days; p=0.022; FIGS. 9B, 9C
Source text: Endometriosis Mouse Model by Hetero-transplantation with immortalized human endometrial cells: The luciferase stable immortalized human endometrial epithelial cells […] and luciferase stable immortalized human endometrial stromal cells (LIHESCs) were generated from IHESCs isolated from endometria obtained from hysterectomies for benign conditions and IHEECs generated from ovarian endometrioma by transducing lentivirus-expressing luciferase and then the expression of luciferase was validated with the luciferase activity assay. Matrigel contained the mixture of LIHESCs (1×10^6 cells) and LIHEECs (1×10^6 cells) were injected into the peritoneal cavity of female severe combined immune deficiency (SCID) mice (6 weeks old) to induce endometriosis. Henceforth, we refer to the mixture of LIHEECs and LIHESCs as human endometrial cells (HEC). […] To noninvasively determine the progression of human ectopic lesions, we injected mice with 150 mg/kg of D-Luciferin intra-peritoneally 5 min before imaging, and then determined luciferase activities of human ectopic lesions in mice using In Vivo Image System.

COc1cc(C(c2c[nH]c3ccccc23)c2c[nH]c3ccccc23)cc(Cl)c1O [DIM-C-pPhOH-3-Cl-5-OCH3]
intrinsic transcriptional activity of GAL4-NR4A1 (GAL4-NR4A1): inhibited the intrinsic transcriptional activity | levels of the cleaved form of PARP and Bax (NEM cells; 25 μM DIM-C-pPhOH, 10 μM DIM-C-pPhOH-3-Cl-5-OCH3, vs DMSO control, FIG. 4D): did not enhance | cMyc and EGFR expression (NEM cells; 15-25 μM DIM-C-pPhOH, 5-10 μM DIM-C-pPhOH-3-Cl-5-OCH3, vs DMSO control, FIG. 4B): did not decrease | expression of SMA levels (ESECT-7 cells [1]): decreased expression of SMA levels | mRNA levels of fibrosis markers (FN, Col1A1, CTGF) (ESECT-7 cells [2]): decreased mRNA levels | reduction of luciferase activity in human ectopic lesions compared with the vehicle (human ectopic lesions): 13.4 fold
